Activity calls are given as the source filed them. No rule for the calls is given here.

The data set relates to rodent carcinogenicity bioassays, tumor incidence. Description: CCRIS carcinogenicity studies. A digest of the protocol: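 Archive of carcinogenicity, mutagenicity, tumor promotion and tumor inhibition results drawn from journals, NCI reports and other sources, expert-reviewed; covers 1985-2011 and is no longer updated.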

Regarding `Nc1ccccc1`, the carcinogen call (Species: MOUSE, Strain/Sex: B6C3F1/FEMALE, Route: ORAL, Dose: 0, 0.6, 1.2% OF DIET, Dose: 0, 0.6, 1.2% OF DIET) is “inactive; negative”; the carcinogen call (Species: MOUSE, Strain/Sex: B6C3F1/MALE, Route: INTRAPERITONEAL, Dose: 0, 0.15 UMOL/G ONCE IN SODIUM ACETATE BUFFER (STUDY DURATION: 10 MO)) was “inactive; negative”; the carcinogen call (Species: MOUSE, Strain/Sex: B6C3F1/MALE, Route: ORAL, Dose: 0, 0.6, 1.2% OF DIET, Dose: 0, 0.6, 1.2% OF DIET) was “inactive; negative”; the carcinogen call (Species: RAT, Strain/Sex: F344/FEMALE, Route: ORAL, Dose: 0, 0.3, 0.6% OF DIET, Dose: 0, 0.3, 0.6% OF DIET, Tumor Site: Type of Lesion: SPLEEN OR BODY CAVITIES (BOTH PLEURAL AND PERITONEAL): FIBROSARCOMA OR SARCOMA, NOS) is “active; positive”; the carcinogen call (Species: RAT, Strain/Sex: F344/FEMALE, Route: ORAL, Dose: 0, 3000, 6000 PPM IN DIET FOR 103 WK (STUDY DURATION: 108 WK), Dose: 0, 3000, 6000 PPM IN DIET FOR 103 WK (STUDY DURATION: 108 WK), Tumor Site: Type of Lesion: SPLEEN OR PERITONEUM: SARCOMA) was “active; positive”; the carcinogen call (Species: RAT, Strain/Sex: F344/MALE, Route: ORAL, Dose: 0, 0.3, 0.6% OF DIET, Dose: 0, 0.3, 0.6% OF DIET, Tumor Site: Type of Lesion: SPLEEN AND BODY CAVITIES (BOTH PLEURAL AND PERITONEAL): FIBROSARCOMA OR SARCOMA, NOS, HEMANGIOSARCOMA) is “active; positive”. For the same molecule, the carcinogen call (Species: RAT, Strain/Sex: F344/MALE, Route: ORAL, Dose: 0, 3000, 6000 PPM IN DIET FOR 103 WK (STUDY DURATION: 108 WK), Dose: 0, 3000, 6000 PPM IN DIET FOR 103 WK (STUDY DURATION: 108 WK), Tumor Site: Type of Lesion: SPLEEN OR PERITONEUM: SARCOMA) is “active; positive”.
For `C=CC(=O)NCO`, the carcinogen call (Species: MOUSE, Strain/Sex: B6C3F1/FEMALE, Route: GAVAGE, Dose: 0, 25, 50 MG/KG IN DEIONIZED WATER 5 D/WK FOR 103 WK (STUDY DURATION: 105 WK), Dose: 0, 25, 50 MG/KG IN DEIONIZED WATER 5 D/WK FOR 103 WK (STUDY DURATION: 105 WK), Tumor Site: Type of Lesion: HARDERIAN GLAND: ADENOMA, ADENOMA OR CARCINOMA, LIVER: HEPATOCELLULAR ADENOMA, HEPATOCELLULAR ADENOMA OR CARCINOMA, LUNG, Tumor Site: Type of Lesion: HARDERIAN GLAND: ADENOMA, ADENOMA OR CARCINOMA, LIVER: HEPATOCELLULAR ADENOMA, HEPATOCELLULAR ADENOMA OR CARCINOMA, LUNG) is “active; positive”; the carcinogen call (Species: MOUSE, Strain/Sex: B6C3F1/MALE, Route: GAVAGE, Dose: 0, 25, 50 MG/KG IN DEIONIZED WATER 5 D/WK FOR 103 WK (STUDY DURATION: 105 WK), Dose: 0, 25, 50 MG/KG IN DEIONIZED WATER 5 D/WK FOR 103 WK (STUDY DURATION: 105 WK), Tumor Site: Type of Lesion: HARDERIAN GLAND: ADENOMA, ADENOMA OR CARCINOMA, LIVER: HEPATOCELLULAR ADENOMA, HEPATOCELLULAR CARCINOMA, LUNG: ALVEOLAR/, Tumor Site: Type of Lesion: HARDERIAN GLAND: ADENOMA, ADENOMA OR CARCINOMA, LIVER: HEPATOCELLULAR ADENOMA, HEPATOCELLULAR CARCINOMA, LUNG: ALVEOLAR/) was “active; positive”; the carcinogen call (Species: RAT, Strain/Sex: F344/FEMALE, Route: GAVAGE, Dose: 0, 6, 12 MG/KG IN DEIONIZED WATER 5 D/WK FOR 103 WK (STUDY DURATION: 105 WK), Dose: 0, 6, 12 MG/KG IN DEIONIZED WATER 5 D/WK FOR 103 WK (STUDY DURATION: 105 WK)) was “inactive; negative”; the carcinogen call (Species: RAT, Strain/Sex: F344/MALE, Route: GAVAGE, Dose: 0, 6, 12 MG/KG IN DEIONIZED WATER 5 D/WK FOR 103 WK (STUDY DURATION: 105 WK), Dose: 0, 6, 12 MG/KG IN DEIONIZED WATER 5 D/WK FOR 103 WK (STUDY DURATION: 105 WK)) was “inactive; negative”.
As to `Nc1ccc2ccccc2c1`, the carcinogen call is “active; positive” (Species: DOG, Route: ORAL, Tumor Site: Type of Lesion: URINARY BLADDER); “active; positive” (Species: DOG, Strain/Sex: BEAGLE/FEMALE, Route: ORAL, Dose: 21.3 MG/KG 5/WK, Tumor Site: Type of Lesion: URINARY BLADDER: TRANSITIONAL CELL CARCINOMA); “active; positive” (Species: DOG, Strain/Sex: BEAGLE/MALE, Route: ORAL, Dose: 18.4 MG/KG 5/WK, Tumor Site: Type of Lesion: URINARY BLADDER: TRANSITIONAL CELL CARCINOMA); “active; positive” (Species: HAMSTER, Route: ORAL, Tumor Site: Type of Lesion: URINARY BLADDER); “active; positive” (Species: HUMAN, Route: ORAL, INHALATION, DERMAL, Tumor Site: Type of Lesion: URINARY BLADDER); “active; positive” (Species: MONKEY, Route: ORAL, Tumor Site: Type of Lesion: URINARY BLADDER). Besides, the carcinogen call (Species: MOUSE, Route: ORAL, Tumor Site: Type of Lesion: LIVER) is “active; positive”.
Take `CN1CCN(N=O)CC1`: the carcinogen call (Species: RAT, Strain/Sex: SPRAGUE-DAWLEY/FEMALE, Route: INHALATION, Dose: 0, 2.4 PPM 14.5 HR/D FOR 74 D OVER 7.5 MONTHS (STUDY DURATION: 350 D), Tumor Site: Type of Lesion: NASAL CAVITY: TUMOR) is “active; positive”.
Take `Cc1ccc2c3c(cccc13)-c1ccccc1-2`: the carcinogen call by setting is: (Species: MOUSE, Strain/Sex: CD-1/FEMALE, Route: INTRAPERITONEAL, Dose: 0, 3.46, 17.3 UMOL (TOTAL DOSE) IN DMSO ADMINISTERED ON DAYS 1,8, AND 15 OF LIFE (STUDY DURATION: 52 WK), Dose: 0, 3.46, 17.3 UMOL (TOTAL DOSE) IN DMSO ADMINISTERED ON DAYS 1,8, AND 15 OF LIFE (STUDY DURATION: 52 WK)) “inactive; negative”; (Species: MOUSE, Strain/Sex: CD-1/MALE, Route: INTRAPERITONEAL, Dose: 0, 3.46, 17.3 UMOL (TOTAL DOSE) IN DMSO ADMINISTERED ON DAYS 1,8, AND 15 OF LIFE (STUDY DURATION: 52 WK), Dose: 0, 3.46, 17.3 UMOL (TOTAL DOSE) IN DMSO ADMINISTERED ON DAYS 1,8, AND 15 OF LIFE (STUDY DURATION: 52 WK), Tumor Site: Type of Lesion: LIVER: TUMORS) “active; positive”.

Values taken from PubChem BioAssay AID1259411 (Chemical Carcinogenesis Research Information System (CCRIS), 2018).
